pIC50: −log10 of the molar value. Where a name gives a salt, the structure may show the parent alone. Read-outs that look alike come from different tables or passages of the source.

Assay [1] relates to Enterococcus faecalis (ATCC29212). Briefly: MIC, broth microdilution (CLSI), Enterococcus faecalis. It is filed as cell-based.
In assay [2] the test system is Pseudomonas aeruginosa (ATCC27853). Briefly: MIC, broth microdilution (CLSI), Pseudomonas aeruginosa. It is filed as cell-based. For orientation: In broth dilution the organism is exposed to a series of concentrations in liquid medium.
The test system of assay [3] is Staphylococcus aureus subsp. aureus (ATCC29213). As to the kind of experiment: MIC, broth microdilution (CLSI), Staphylococcus aureus ATCC29213. The format is cell-based. Particulars: Staphylococcus aureus.
The subject of assay [4] is E. coli RNase P RNA, M1 RNA. As to the kind of experiment: Inhibition of bacterial RNase P activity, IC50 determination (cleavage of pATSerUG by M1 RNA). It is filed as biochemical. Particulars: NI: No inhibition.
Assay [5] deals with S. aureus MRSA ATCC 33591. Briefly: MIC, S. aureus MRSA ATCC 33591. It is filed as cell-based. Particulars: Staphylococcus aureus, read-out: S. aureus MRSA ATCC 33591 MIC.
Another assay deals with E. faecium ATCC 700221. As to the kind of experiment: MIC, E. faecium ATCC 700221. It is filed as cell-based. To be noted: Enterococcus faecium.
For a further assay, the system named is S. pneumoniae ATCC 49619. As to the kind of experiment: MIC, S. pneumoniae ATCC 49619. It is filed as cell-based. Particulars: Streptococcus pneumoniae, ATCC49619; Table XIV A. Gram-positive bacteria.
Assay [6] relates to E. coli JW5503 (efflux defective). As to the kind of experiment: MIC, E. coli JW5503 (efflux defective). The format is cell-based. To be noted: Escherichia coli, read-out: E. coli JW5503 (efflux defective) MIC.
For the next assay, the system named is K. pneumoniae ATCC 43816. As to the kind of experiment: MIC, K. pneumoniae ATCC 43816. To be noted: Klebsiella pneumoniae, ATCC43816; Table XIV B. Gram-negative bacteria. The format is cell-based.
The subject of a further assay is H. influenzae ATCC 49247. As to the kind of experiment: MIC, H. influenzae ATCC 49247. Particulars: Haemophilus influenzae, ATCC49247; Table XIV B. Gram-negative bacteria. The format is cell-based.
In the next assay the test system is A. baumannii ATCC 17978. Briefly: MIC, A. baumannii ATCC 17978. It is filed as cell-based. To be noted: Acinetobacter baumannii, ATCC17978; Table XIV B. Gram-negative bacteria.
The test system of assay [7] is P. aeruginosa NTUH974 (MDR). Briefly: MIC, P. aeruginosa NTUH974 (MDR). It is filed as cell-based. Particulars: Pseudomonas aeruginosa, read-out: P. aeruginosa NTUH974 (MDR) MIC.
Assay [8] concerns N. gonorrhoeae ATCC 700825. Briefly: MIC, N. gonorrhoeae ATCC 700825. It is filed as cell-based. Particulars: Neisseria gonorrhoeae, ATCC700825; Table XIV B. Gram-negative bacteria.
The subject of assay [9] is Escherichia coli (ATCC25922). Briefly: MIC, broth microdilution (CLSI), Escherichia coli. To be noted: Escherichia coli.
For assay [10], the system named is Staphylococcus aureus (ATCC25923). As to the kind of experiment: MIC, broth microdilution (CLSI), Staphylococcus aureus ATCC25923. Particulars: Staphylococcus aureus, ATCC25923, read-out: S. aureus ATCC 25923 MIC.
Protocol: Initial minimal inhibitory concentration (MIC) tests were made on two bacterial strains: • Escherichia coli (ATCC25922) • Staphylococcus aureus (ATCC25923).
MIC values were determined using the standard broth microdilution procedure based on the guidelines by the Clinical and Laboratory Standards Institute (CLSI). Briefly, the compounds were dissolved in DMSO to 10 mM. They were diluted in cation-adjusted Mueller-Hinton broth (CAMHB) to four times the highest concentration tested. A serial two-fold dilution in CAMHB was done in microdilution plates. The inoculum of bacterial strain to be tested was prepared by making a suspension of colonies from an 18 to 24 hours old plate in CAMHB. The inoculum was diluted so that, after inoculation, each well contained approximately 5×10^5 CFU/mL. To a volume of 50 μl compound in CA 3 an equal volume of inoculum was added. The tray was sealed in a plastic bag and incubated at 35° C. for 16 to 20 hours. To aid in the detection of growth the dye resazurin was added to a final concentration 0.001% and incubated at room temperature for 1 h. Reduction of resazurin, and therefore bacterial growth, was seen as a change from blue to pink.
Where [11] appears, read: ATCC29212, Table XIV A. Gram-positive bacteria, read-out: E. faecalis ATCC 29212 MIC.
Where [12] appears, read: ATCC27853, Table XIV B. Gram-negative bacteria, read-out: P. aeruginosa ATCC 27853 MIC.
[13] abbreviates: ATCC29213, Table XIV A. Gram-positive bacteria, read-out: S. aureus ATCC 29213 MIC.
Setting [14] is: Table XIV A. Gram-positive bacteria.
[15] abbreviates: ATCC700221, Table XIV A. Gram-positive bacteria, read-out: E. faecium ATCC 700221 MIC.
[16] abbreviates: Table XIV B. Gram-negative bacteria.
Setting [17] is: ATCC25922, read-out: E. coli ATCC 25922 MIC, Table XIII.
The mark [18] stands for this setting: ATCC25922, read-out: E. coli ATCC 25922 MIC, Table XIV B. Gram-negative bacteria.
[19] abbreviates: ATCC29213, Table XIII, read-out: S. aureus ATCC 29213 MIC.
Where [20] appears, read: ATCC29213, read-out: S. aureus ATCC 29213 MIC, Table XIII.

The pIC50 is the IC50 on a negative log10 scale, so that one unit is a factor of ten. A lower pIC50 goes with a high IC50. With `Cc1cccc(C(CC(=O)NCCC2CCNCC2)c2cn(CC3CCCCC3)c3ccc(Br)cc23)c1.Cl` (stereo not drawn) [Compound 120, 3-(5-bromo-1-(cyclohexylmethyl)-1H-indol-3-yl)-N-(2-(piperidin-4-yl)ethyl)-3-(m-tolyl)propanamide hydrochloride salt], the MIC in assay [1] (setting [11]) is 4 µg/mL; in assay [2] (setting [12]) it was 64 µg/mL; in assay [3] (setting [13]) it was 2 µg/mL; in assay [5] (setting [14]), 32 µg/mL; with E. faecium ATCC 700221 (setting [15]) it was 4 µg/mL; in the assay with S. pneumoniae ATCC 49619 it was 16 µg/mL. The MIC in assay [6] was found to be 16 µg/mL; with K. pneumoniae ATCC 43816, 64 µg/mL; against H. influenzae ATCC 49247, 16 µg/mL; against A. baumannii ATCC 17978, 64 µg/mL; in [7] (setting [16]), 64 µg/mL; in assay [8], 2 µg/mL. Besides, the MIC is over 512 µg/mL in assay [9] (setting [17]), 32 µg/mL in assay [9] (setting [18]) and 2 µg/mL in assay [10]. The compound further had a pIC50 in assay [4] of 4.96.
On to `Cc1cccc(C(CC(=O)Nc2ccc(CN)cc2)c2cn(CC3CCCCC3)c3ccccc23)c1.Cl` (stereo not drawn) [Compound 139, N-(4-(aminomethyl)phenyl)-3-(1-(cyclohexylmethyl)-1H-indol-3-yl)-3-(m-tolyl)propanamide hydrochloride salt], for which the MIC in assay [1] (setting [11]) was 4 µg/mL; in assay [2] (setting [12]) it was over 128 µg/mL; in assay [3] (setting [13]), 4 µg/mL; in assay [5] (setting [14]) it was 8 µg/mL; in the assay with E. faecium ATCC 700221 (setting [15]) it was 4 µg/mL; in the assay with S. pneumoniae ATCC 49619, 16 µg/mL. Also, the MIC in assay [6] is 32 µg/mL; against K. pneumoniae ATCC 43816 it was over 128 µg/mL; with H. influenzae ATCC 49247 it was 16 µg/mL; in the assay on A. baumannii ATCC 17978, over 128 µg/mL; in assay [7] (setting [16]), over 128 µg/mL; in assay [8], 2 µg/mL. In addition, the MIC in assay [9] (setting [17]) is over 512 µg/mL; in assay [9] (setting [18]), over 128 µg/mL; in assay [10], 2 µg/mL. The pIC50 in assay [4] was 4.34.
Regarding `NC1CCC(NC(=O)CC(c2cccc(OC(F)(F)F)c2)c2cn(CC3CCCCC3)c3ccccc23)CC1` [Compound 143, N-((1S,4S)-4-aminocyclohexyl)-3-(1-(cyclohexylmethyl)-1H-indol-3-yl)-3-(3-(trifluoromethoxy)phenyl) propanamide hydrochloride salt], the MIC was 4 µg/mL in assay [1] (ATCC29212, read-out: E. faecalis ATCC 29212 MIC); over 128 µg/mL in [2] (ATCC27853, read-out: P. aeruginosa ATCC 27853 MIC); 4 µg/mL in [3] (ATCC29213, read-out: S. aureus ATCC 29213 MIC, Table XIV A. Gram-positive bacteria); 16 µg/mL in [5]; 4 µg/mL in the assay on E. faecium ATCC 700221 (ATCC700221, read-out: E. faecium ATCC 700221 MIC); 16 µg/mL against S. pneumoniae ATCC 49619. The MIC in assay [6] was 64 µg/mL; against K. pneumoniae ATCC 43816, over 128 µg/mL; with H. influenzae ATCC 49247, 16 µg/mL; against A. baumannii ATCC 17978 it was over 128 µg/mL; in assay [7], over 128 µg/mL; in [8] it was 2 µg/mL. In addition, the MIC in [9] (setting [17]) is over 512 µg/mL; in assay [9] (setting [18]), over 128 µg/mL; in [10], 2 µg/mL. The compound also gave a pIC50 in assay [4] of 4.70.
On to `NC1CCC(NCCC(c2ccc(F)c(F)c2)c2cn(CC3CCCCC3)c3ccccc23)CC1` [Compound 161, (1S,4S)-N1-(3-(1-(cyclohexylmethyl)-1H-indol-3-yl)-3-(3,4-difluorophenyl)propyl) cyclohexane-1,4-diamine hydrochloride salt], for which the MIC in assay [3] (setting [19]), in [9] (setting [17]) and in assay [10] was 2 µg/mL throughout. This compound gave a pIC50 in [4] of 4.92.
Regarding `Cc1cccc(C(CCN[C@H]2CC[C@H](N)CC2)c2cn(CC3CCCC3)c3ccccc23)c1` (stereo partly drawn) [Compound 164, (1R,4R)-N1-(3-(1-(cyclopentylmethyl)-1H-indol-3-yl)-3-(m-tolyl)propyl)cyclohexane-1,4-diamine hydrochloride salt], the MIC in [3] (setting [19]) worked out at 8 µg/mL; in assay [9] (setting [17]), 8 µg/mL; in assay [10], 4 µg/mL. The same compound gave a pIC50 in assay [4] of 5.02.
As for `Cl.N[C@H]1CC[C@H](NC(=O)CC(c2cncc3ccccc23)c2cn(CC3CCCCC3)c3ccccc23)CC1` (stereo partly drawn) [Compound 191, N-((1R,4R)-4-aminocyclohexyl)-3-(1-(cyclohexylmethyl)-1H-indol-3-yl)-3-(isoquinolin-4-yl)propanamide hydrochloride salt], the MIC was determined as 8 µg/mL in assay [3] (setting [19]), 8 µg/mL in [9] (setting [17]) and 5 µg/mL in assay [10]. The compound also gave a pIC50 in assay [4] of 5.15.
With `Cc1cccc(C(CCNC2CCCCC2)c2cn(CC3CCCCC3)c3ccccc23)c1.Cl` (stereo not drawn) [Compound 215, N-(3-(1-(cyclohexylmethyl)-1H-indol-3-yl)-3-(m-tolyl)propyl) cyclohexanamine hydrochloride salt], the MIC in assay [1] (setting [11]) is 2 µg/mL; in assay [2] (setting [12]) it was over 128 µg/mL; in [3] (setting [19]), 2 µg/mL; in assay [3] (setting [13]), 2 µg/mL; in assay [5] (setting [14]), over 128 µg/mL; in the assay with E. faecium ATCC 700221 (setting [15]), 1 µg/mL. The MIC is 2 µg/mL against S. pneumoniae ATCC 49619; 64 µg/mL in assay [6]; over 128 µg/mL against K. pneumoniae ATCC 43816; 16 µg/mL in the assay on H. influenzae ATCC 49247; over 128 µg/mL against A. baumannii ATCC 17978; over 128 µg/mL in [7] (setting [16]). The MIC in assay [8] is 1 µg/mL; in assay [9] (setting [17]), over 128 µg/mL; in assay [9] (setting [18]), over 128 µg/mL; in assay [10], 2 µg/mL.
Turning to `Cl.O=C(CCC1C(=O)N(CC2CCCCC2)c2ccccc21)NC1CCNCC1` (stereo not drawn) [Compound 275, 3-(1-(cyclohexylmethyl)-2-oxoindolin-3-yl)-N-(piperidin-4-yl) propanamide hydrochloride salt], the values for the MIC in assay [3] (setting [19]), in assay [9] (setting [17]) and in assay [10] were over 128 µg/mL, over 128 µg/mL and over 512 µg/mL, respectively. Also, the pIC50 in assay [4] is 4.10.
For the compound `Cc1cccc(C(CCNCC2CNCCO2)c2cn(CC3CCCCC3)c3ccccc23)c1` (stereo not drawn) [Compound 288, 3-(1-(cyclohexylmethyl)-1H-indol-3-yl)-N-(morpholin-2-ylmethyl)-3-(m-tolyl)propan-1-amine hydrochloride salt], the MIC in [3] (setting [20]) was found to be 128 µg/mL; in [9] (setting [17]) it was 4 µg/mL; in assay [10] it was 4 µg/mL. Besides, the pIC50 in [4] is 4.28.
Turning to `Cc1cccc(C(CCNCC2CNCCO2)c2cn(CC3CCCCC3)c3ccc(Br)cc23)c1.Cl` (stereo not drawn) [Compound 289, 3-(5-bromo-1-(cyclohexylmethyl)-1H-indol-3-yl)-N-(morpholin-2-ylmethyl)-3-(m-tolyl)propan-1-amine hydrochloride salt], the MIC in assay [3] (setting [19]) came to 64 µg/mL; in assay [9] (setting [17]), 16 µg/mL; in assay [10], 2 µg/mL. In [4], this compound showed a pIC50 of 4.82.
With `Cc1cccc(C(CCNC2CCNCC2)c2cn(CC3CCOCC3)c3ccc(Br)cc23)c1` (stereo not drawn) [Compound 293, N-(3-(5-bromo-1-((tetrahydro-2H-pyran-4-yl)methyl)-1H-indol-3-yl)-3-(m-tolyl)propyl) piperidin-4-amine hydrochloride salt], the MIC was found to be 8 µg/mL in assay [3] (setting [20]), 4 µg/mL in [9] (setting [17]) and 5 µg/mL in [10]. The compound also gave a pIC50 in assay [4] of 4.15.
`Cc1cccc(C(CC(=O)NC2CCNCC2)c2cn(CC3CCCCC3)c3ccc(C(=O)O)cc23)c1.Cl` (stereo not drawn) [Compound 297, 1-(cyclohexylmethyl)-3-(3-oxo-3-(piperidin-4-ylamino)-1-(m-tolyl)propyl)-1H-indole-5-carboxylic acid hydrochloride salt]: the MIC in assay [3] (setting [19]) was 32 µg/mL; in [9] (setting [17]) it was over 128 µg/mL; in [10], 34 µg/mL. This compound also showed a pIC50 in assay [4] of 4.42.

These data come from patent publication US20210246115A1 (Bioimics AB, priority 2017, published 2021).
